In US6787125B1, “Compound screening method” (priority 1999, dated 2004):
Structures can show the parent of a compound that is named as a salt. Where two headings read alike, the source gives them in different places.

Experiments:
C. elegans = type: in vivo
Text: Nematode worms that are placed in liquid culture will move in such a way that they maintain a more or less even (or homogeneous) distribution throughout the culture. Nematode worms that are defective in movement will precipitate to the bottom in liquid culture.
Advanced multi-well plate readers are able to detect sub-regions of the wells of multi-well plates. By using these plate readers it is possible to take measurements in selected areas of the surface of the wells of the multi-well plates. If the area of measurement is centralized, so that only the middle of the well is measured, a difference in nematode autofluorescence (fluorescence which occurs in the absence of any external marker molecule) or optical density can be observed in the wells containing nematodes that move normally as compared to wells containing nematodes that are defective for movement. For the wells containing the nematodes that move normally, a low level of autofluorescence or optical density will be observed, whilst a high level of autofluorescence or optical density can be observed in the wells that contain the nematodes that are defective in movement. Optical density is measured using a variation of the platelet aggregation assay, which is well known in the art. Using the MRX revelation device from Dynex (USA), optical density can be measured at multiple points per well, showing the precipitation pattern of the nematodes.
In an adaptation of the movement assay, autofluorescence or optical density measurements can be taken in two areas of the surface of the well, one measurement in the centre of the well, and on measurement on the edge of the well. Comparing the two measurements gives analogous results as in the case if only the centre of the well is measured but the additional measurement of the edge of the well results in an extra control and somewhat more distinct results.

C. elegans pharynx = test: Pharynx pumping assay (calcein-AM), strain not specified: dilution series, insecticides, Tocris library; type: in vivo; details: for effect on pharynx pumping rate, dose-response curve: concentration range from less than 1 μM up to 100 μM; for effect of compounds of known insecticidal activity on the pharynx pumping rate: FIGS. 18 to 21
Description: The pumping rate of the pharynx is measured indirectly by adding a marker molecule precursor such as calcein-AM to the medium and measuring the formation of marker dye in the C. elegans gut. Calcein-AM is cleaved by esterases present in the C. elegans gut to release calcein, which is a fluorescent molecule. […] Therefore by measuring the accumulation of calcein in the nematode gut, detectable by fluorescence, it is possible to determine the pumping rate of the pharynx.
To perform the pharynx pumping screen with calcein-AM, a concentration of between 1 and 100 μM calcein-AM is added into the medium. Preferably 5 to 10 μM calcein-AM is used. Fluorescence is measured using a multi-well plate reader (Victor2, Wallac Oy, Finland) with following settings: Ex/Em=485/530.
To determine the sensitivity of the pharynx pumping assay, dilution series were made for some chemical substances. These include the chemicals clomipramine, tamoxifen, BP554, pimazide and thapsigargin. A concentration range was made from less than 1 μM up to 100 μM, and the pumping assay was repeated as described in previous examples.

| Compound | movement assay reading, first number column (no head printed) (C. elegans; Table 10 c3) | movement assay reading, second number column (no head printed) (C. elegans; Table 10 c4) | hit call: detectable change in the movement behaviour (C. elegans; Table 10 c7) | further results |
| --- | --- | --- | --- | --- |
| 7-(Dimethylcarbamoyloxy)-6-phenylpyrrolo | 14278 | 32900 | HIT | – |
| NC(CCCCCC(=O)O)C(=O)O (racemic) [DL-2-Aminosuberic acid] | – | – | – | hit call: detectable change in the movement behaviour (C. elegans; in vivo): HIT; movement assay reading, first number column (no head printed) (C. elegans; in vivo): 17141; movement assay reading, second number column (no head printed) (C. elegans; in vivo): 33518 |
| c1ccc(-c2cnc(-c3ccccc3)o2)cc1 [2,5-diphenyloxazole] | – | – | – | effect on pumping rate of the pharynx (C. elegans pharynx; both in wild-type worms and in constitutive pumping worms): inhibitor of the pumping rate of the pharynx |
| N[C@H](C(=O)O)[C@H](CC(=O)O)c1ccc(Cl)cc1 [(2S,3R)-Chloropheg] | 21514 | 48736 | HIT | – |
| CC(=O)O[C@H](CC(=O)[O-])C[N+](C)(C)C [(n)-Acetylcarnitine] | 23457 | 44156 | HIT | – |
| CC#CCOC(=O)C1=CCCN(C)C1 [Arecaidine but-2-ynyl ester] | 20002 | 37675 | HIT | – |
| c1ccc(N2CCN(CCCOc3ccc4c(c3)OCO4)CC2)cc1 [BP554] | – | – | – | effect on pharynx pumping rate, dose-response curve (C. elegans pharynx): inhibitors |
| CC(C)(Oc1ccc(Cl)cc1)C(=O)O [Clofibric acid] | 22933 | 40916 | HIT | – |
| CN(C)CCCN1c2ccccc2CCc2ccc(Cl)cc21 [Clomipramine] | – | – | – | effect on pharynx pumping rate, dose-response curve (C. elegans pharynx): enhancer |
| NC1(C(=O)O)CCCC1 [Cycloleucine] | 19234 | 36560 | HIT | – |
| NC(CCCP(=O)(O)O)C(=O)O [D-AP5] | 19717 | 41697 | HIT | – |
| C[S+](C)[O-] [DMSO] | – | – | – | toxic effect in pharynx pumping dose-response curve (C. elegans pharynx; solvent, at higher concentrations (FIG. 5)): toxic effect |
| CCN(CC)CCOc1ccc(Cc2ccccc2)cc1 [DPPE] | 20365 | 43629 | HIT | – |
| ClC1=C(Cl)[C@]2(Cl)[C@@H]3[C@@H]4C[C@@H]([C@H]5O[C@@H]45)[C@@H]3[C@@]1(Cl)C2(Cl)Cl [Dieldrin] | – | – | – | effect of compounds of known insecticidal activity on the pharynx pumping rate (C. elegans pharynx): reduction in the pharynx pumping rate |
| CN(C)CCC=C1c2ccccc2COc2ccccc21 [Doxepin] | – | – | – | effect on pharynx pumping (C. elegans pharynx; general statement): enhancer of pharynx pumping |
| CN(C)CCCn1cc(C2=C(c3c[nH]c4ccccc34)C(=O)NC2=O)c2ccccc21 [GF 109203X] | 15685 | 34448 | HIT | – |
| COc1ccc(CNC(=O)/C=C/c2ccc3[nH]cc(CCN(C)C)c3c2)cc1 [GR 46611] | 15815 | 33199 | HIT | – |
| CCCCCCC(C)(C)c1cc(O)c2c(c1)OC(C)(C)[C@@H]1CC=C(CO)C[C@@H]21 [HU 210] | 15481 | 33514 | HIT | – |
| Cc1nccc2c1[nH]c1ccccc12 [Harmane HCl] | 1843115 | 555251 | – | – |
| O=C(O)c1cc2ccccc2[nH]1 [Indole-2-carboxylic acid] | 19362 | 43403 | HIT | – |

| Compound | movement assay reading, first number column (no head printed) (C. elegans; Table 10 c3) | movement assay reading, second number column (no head printed) (C. elegans; Table 10 c4) | hit call: detectable change in the movement behaviour (C. elegans; Table 10 c7) | further results |
| --- | --- | --- | --- | --- |
| CC(=O)N1CCN(c2ccc(OCC3COC(Cn4ccnc4)(c4ccc(Cl)cc4Cl)O3)cc2)CC1 (centres unmarked) [Ketoconazole] | 15803 | 33531 | HIT | – |
| O=c1[nH]c2cc(Cl)ccc2c(O)c1-c1cccc(Oc2ccccc2)c1 [L-701,324] | 14647 | 32476 | HIT | – |
| N[C@@H](CP(=O)(O)O)C(=O)O [L-AP3] | 22073 | 41858 | HIT | – |
| NC(CCP(=O)(O)O)C(=O)O [L-AP4] | 19824 | 39523 | HIT | – |
| N[C@@H](CCCP(=O)(O)O)C(=O)O [L-AP5] | 21446 | 42393 | HIT | – |
| CC(N)(COP(=O)(O)Oc1ccccc1)C(=O)O (centres unmarked) [MSOPPE] | 23760 | 44614 | HIT | – |
| Oc1ccc2c3c1O[C@H]1c4c(c5ccccc5n4Cc4ccccc4)C[C@@]4(O)[C@@H](C2)N(CC2CC2)CC[C@]314 [N-Benzyl naltrindole] | 14932 | 31760 | HIT | – |
| NCC(O)COc1cccc2ccccc12 (centres unmarked) [N-desisopropyl propanolol] | 23737 | 43102 | HIT | – |
| N[C@@H](COP(=O)(O)O)C(=O)O [O-Phospho-L-serine] | 20292 | 41086 | HIT | – |
| COc1cc2nc(N3CCN(C(=O)c4ccco4)CC3)nc(N)c2cc1OC [Prazosin] | 94689 | 113608 | HIT | – |
| OCC(O)COc1cccc2ccccc12 (centres unmarked) [Propanolol glycol] | 17134 | 34849 | – | – |
| CC(C)(Cc1c[nH]c2ccc(Cl)cc12)NCCOc1ccccc1OCC1CC1 [RS 17053] | 14439 | 32050 | HIT | – |
| C=C(C)[C@H]1Cc2c(ccc3c2O[C@@H]2COc4cc(OC)c(OC)cc4[C@@H]2C3=O)O1 [Rotenone] | – | – | – | effect of compounds of known insecticidal activity on the pharynx pumping rate (C. elegans pharynx): reduction in the pharynx pumping rate |
| CC(=O)N[C@@H](CC(=O)N[C@@H](CCC(=O)O)C(=O)O)C(=O)O [Spaglumic acid] | 20295 | 38417 | HIT | – |
| CP(=O)(O)C1=CCNCC1 [TPMPA] | 21792 | 120778 | HIT | – |
| C=CC(N)CCC(=O)O (centres unmarked) [Vigabatrin] | 20828 | 61410 | HIT | – |
| COc1ccc(CCN(C)CCc2ccc(OC)c(OC)c2)cc1OC [YS-035] | 21415 | 42457 | HIT | – |
| O=C(O)[C@@H]1C[C@H](C(=O)O)N1 [cis-Azetidine-2,4-dicarboxylic acid] | 19503 | 40568 | HIT | – |
| O=C(O)[C@@H]1C[C@@H](C(=O)O)N1 [tADA] | 16096 | 32342 | HIT | – |
| S(-)-Atenolol | 18176 | 36336 | HIT | – |
